What was measured:
[1] = molecular target: Serine/threonine-protein kinase pim-1 (Homo sapiens) (UniProt P11309); assay: Binding affinity to wild-type human partial length PIM1 (A15 to K313 residues) expressed in bacterial expression system assessed as residual binding level at 1 uM by Kinomescan method relative to control
[2] = molecular target: Serine/threonine-protein kinase Chk2 (Homo sapiens) (UniProt O96017); assay: Binding affinity to wild-type human partial length CHEK2 (S253 to E574 residues) expressed in bacterial expression system assessed as residual binding level at 1 uM by Kinomescan method relative to control
[3] = system: eIF-2-alpha kinase GCN2 (Homo sapiens), Q9P2K8 [S808G]; assay: Binding affinity to wild-type human partial length GCN2 kinase domain 2 (R585 to T1018 residues) S808G mutant expressed in bacterial expression system assessed as residual binding level at 1 uM by Kinomescan method relative to control
[4] = molecular target: Serine/threonine-protein kinase N1 (Homo sapiens) (UniProt Q16512); assay: Binding affinity to wild-type human partial length PKN1 (E598 to C948 residues) expressed in bacterial expression system assessed as residual binding level at 1 uM by Kinomescan method relative to control
[5] = molecular target: Cyclin-dependent kinase-like 3 (Homo sapiens) (UniProt Q8IVW4); assay: Binding affinity to wild-type human partial length CDKL3 (M1 to D327 residues) expressed in bacterial expression system assessed as residual binding level at 1 uM by Kinomescan method relative to control
[6] = molecular target: Ribosomal protein S6 kinase alpha-5 (Homo sapiens) (UniProt O75582); assay: Binding affinity to wild-type human partial length C-terminal RPS6KA5 kinase domain 2 (V390 to T718 residues) expressed in bacterial expression system assessed as residual binding level at 1 uM by Kinomescan method relative to control
[7] = molecular target: Serine/threonine-protein kinase 3 (Homo sapiens) (UniProt Q13188); assay: Binding affinity to wild-type human partial length MST2 (D17 to E318 residues) expressed in bacterial expression system assessed as residual binding level at 1 uM by Kinomescan method relative to control
[8] = molecular target: Serine/threonine-protein kinase OSR1 (Homo sapiens) (UniProt O95747); assay: Binding affinity to wild-type human full length OSR1 (M1 to S527 residues) expressed in mammalian expression system assessed as residual binding level at 1 uM by Kinomescan method relative to control
[9] = molecular target: Serine/threonine-protein kinase TNNI3K (Homo sapiens) (UniProt Q59H18); assay: Binding affinity to wild-type human full length TNNI3K (M1 to S835 residues) expressed in bacterial expression system assessed as residual binding level at 1 uM by Kinomescan method relative to control
[10] = molecular target: Mitogen-activated protein kinase kinase kinase 19 (Homo sapiens) (UniProt Q56UN5); assay: Binding affinity to wild-type human partial length YSK4 (T1019 to H1328 residues) expressed in mammalian expression system assessed as residual binding level at 1 uM by Kinomescan method relative to control
[11] = molecular target: Serine/threonine-protein kinase Nek9 (Homo sapiens) (UniProt Q8TD19); assay: Binding affinity to wild-type human partial length NEK9 (P32 to R328 residues) expressed in bacterial expression system assessed as residual binding level at 1 uM by Kinomescan method relative to control
[12] = molecular target: Serine/threonine-protein kinase 38 (Homo sapiens) (UniProt Q15208); assay: Binding affinity to wild-type human partial length NDR1 (N33 to E449 residues) expressed in mammalian expression system assessed as residual binding level at 1 uM by Kinomescan method relative to control
[13] = molecular target: MAP kinase-interacting serine/threonine-protein kinase 1 (Homo sapiens) (UniProt Q9BUB5); assay: Binding affinity to wild-type human full length MKNK1 (M1 to L424 residues) expressed in mammalian expression system assessed as residual binding level at 1 uM by Kinomescan method relative to control
[14] = molecular target: Serine/threonine-protein kinase ULK3 (Homo sapiens) (UniProt Q6PHR2); assay: Binding affinity to wild-type human partial length ULK3 (M1 to Q290 residues) expressed in mammalian expression system assessed as residual binding level at 1 uM by Kinomescan method relative to control
[15] = molecular target: Mitogen-activated protein kinase kinase kinase kinase 5 (Homo sapiens) (UniProt Q9Y4K4); assay: Binding affinity to wild-type human partial length MAP4K5 (M1 to P297 residues) expressed in bacterial expression system assessed as residual binding level at 1 uM by Kinomescan method relative to control
[16] = molecular target: Serine/threonine-protein kinase 38-like (Homo sapiens) (UniProt Q9Y2H1); assay: Binding affinity to wild-type human partial length NDR2 (N34 to E447 residues) expressed in bacterial expression system assessed as residual binding level at 1 uM by Kinomescan method relative to control
[17] = system: Tyrosine-protein kinase ABL1 (Homo sapiens), P00519 [E255K]; assay: Binding affinity to human phosphorylated ABL1 E255K mutant (S229 to K512 residues) expressed in mammalian expression system assessed as residual binding level at 1 uM by Kinomescan method relative to control
[18] = system: Phosphatidylinositol 4,5-bisphosphate 3-kinase catalytic subunit alpha isoform (Homo sapiens), P42336 [M1043I]; assay: Binding affinity to human partial length PIK3CA M1043I mutant (R108 to N1068 residues) expressed in mammalian expression system assessed as residual binding level at 1 uM by Kinomescan method relative to control
[19] = molecular target: Serine/threonine-protein kinase LATS2 (Homo sapiens) (UniProt Q9NRM7); assay: Binding affinity to wild-type human partial length LATS2 (Q641 to V1088 residues) expressed in mammalian expression system assessed as residual binding level at 1 uM by Kinomescan method relative to control
[20] = molecular target: Inhibitor of nuclear factor kappa-B kinase subunit epsilon (Homo sapiens) (UniProt Q14164); assay: Binding affinity to wild-type human full length IKK-epsilon (M1 to V716 residues) expressed in mammalian expression system assessed as residual binding level at 1 uM by Kinomescan method relative to control
[21] = molecular target: Serine/threonine-protein kinase RIO3 (Homo sapiens) (UniProt O14730); assay: Binding affinity to wild-type human full length RIOK3 (M1 to E519 residues) expressed in bacterial expression system assessed as residual binding level at 1 uM by Kinomescan method relative to control
[22] = molecular target: Serine/threonine-protein kinase MAK (Homo sapiens) (UniProt P20794); assay: Binding affinity to wild-type human partial length MAK (M1 to P314 residues) expressed in bacterial expression system assessed as residual binding level at 1 uM by Kinomescan method relative to control
[23] = molecular target: Mitogen-activated protein kinase kinase kinase 15 (Homo sapiens) (UniProt Q6ZN16); assay: Binding affinity to wild-type human partial length MAP3K15 (T625 to L932 residues) expressed in mammalian expression system assessed as residual binding level at 1 uM by Kinomescan method relative to control
[24] = molecular target: Dual specificity mitogen-activated protein kinase kinase 6 (Homo sapiens) (UniProt P52564); assay: Binding affinity to wild-type human partial length MEK6 (K36 to D334 residues) expressed in bacterial expression system assessed as residual binding level at 1 uM by Kinomescan method relative to control

CC(C)Nc1sc(C(=O)c2ccc(Cl)s2)c(N)c1C#N
Activity [1]: 92% | Activity [2]: 84% | Activity [3]: 45% | Activity [4]: 56% | Activity [5]: 47% | Activity [6]: 77% | Activity [7]: 82% | Activity [8]: 83% | Activity [9]: 75% | Activity [10]: 100% | Activity [11]: 85% | Activity [12]: 74% | Activity [13]: 100% | Activity [14]: 99% | Activity [15]: 78% | Activity [16]: 89% | Activity [17]: 100% | Activity [18]: 97% | Activity [19]: 100% | Activity [20]: 100% | Activity [21]: 38% | Activity [22]: 100% | Activity [23]: 100% | Activity [24]: 100%

— ChEMBL document CHEMBL4330132, “5-Keto-3-cyano-2,4-diaminothiophenes as selective maternal embryonic leucine zipper kinase inhibitors” (Bioorg Med Chem Lett, 2019)
